Data on one compound can be found in patent US20230047816A1 (priority 2018, published 2023).

Entries after “also recorded” stand apart in the source; their conditions may differ.

Assay [1] concerns MCAO model of brain ischemia. Nature of the assay: MCAO model of brain ischemia, rota-rod test. Format: in vivo, C57BL/6-J mice. The note with it: 60 mg/kg bolus via jugular vein after reperfusion; 30 mins occlusion; test 24 hours after MCAO. How it is done: For the MCAO model of brain ischemia, 10 weeks-old male C57BL/6-J mice were used (n=8 animals per condition) following a published protocol (1,2). Mice were anesthetized with 4% (vol/vol) Sevoflurane in a mixture of ⅓ O2 and ⅔ N2O using a vaporizer. After the induction of anesthesia, Sevoflurane was reduced to 3% (vol/vol). The body temperature was maintained at 36.5° C. during the surgery. A laser-Doppler flow probe attached to a flowmeter was located over the thinned skull in the MCAO area (4 mm lateral to bregma) to monitor the relative cerebral brain flow during the experiment. Under operating microscope, the common, external and internal carotid arteries were dissected from connective tissue through a midline neck incision. The common carotid artery (CCA) was carefully dissected from the surrounding nerves with caution to avoid harming of the vagal nerve. A suture monofilament was introduced from the lumen of the external carotid artery (ECA) into the internal carotid artery (ICA) to a distance of 9-10 mm beyond the CCA bifurcation, in order to occlude the origin of middle cerebral artery (MCA). The filament was removed 30 mins after occlusion. AZ67 or compound 1 (60 mg/kg of body weight) or vehicle were administered in a bolus (200 μl) via the jugular vein immediately after reperfusion. […] The latency to fall was determined and expressed in seconds.
On the technique in general: Falling from the rotarod earlier than controls is read as motor impairment.

Assay [2] has as its system mouse primary cortical neurons. Nature of the assay: Apoptosis of neurons induced by NMDA and glutamate. Format: cell-based.
In the next assay the test system is Cln7Aex2 mice. Put plainly: Cln7Aex2 mice in vivo (cortex pathology, hindlimb paralysis).
The test system of assay [3] is mouse primary cortical neurons. Put plainly: Apoptosis upon glutamate or NMDA (annexin V+/7AAD-). Format: cell-based. The note with it: for prevention of apoptotic neuronal death: inhibitor 0.01 μM. How it is done:
(§1) To directly test the ability of the PFKFB3 inhibitor, AZ67 and Compound 1, to protect against the damage caused by excitotoxic stimuli, mouse primary cortical neurons were subjected to a short-term exposure to NMDA or glutamate (100 μM for 10 minutes), a well-known excitotoxic stimuli (Almeida and Bolahos, 2001). For NMDAR activation, neurons at 8 days in vitro were incubated with 100 μM glutamate (plus 10 μM glycine) or 100 μM NMDA (plus 10 μM glycine) for 10 minutes. Neurons were then washed and further incubated in culture medium with the PFKFB3 inhibitors for 24 hours. A colorimetric NADP/NADPH assay kit (Abcam) was used. Cells were resuspended in 500 μl of NADP/NADPH extraction buffer, vortexed and centrifuged at 14,000 rpm for 5 minutes to remove insoluble material. The supernatant was used for NADPH +plus NADP+ measurement. NADPH was determined in 200 μl of the supernatant, after heatinged […] 60° C. for 30 minutes to decompose NADP+. Actual NADP and NADPH+ concentrations were calculated by extrapolating values to a NADPH standard curve (0-100 pmol/well).
To show this, neurons were treated with glutamate of NMDA, and apoptosis assessed by annexin V+/7AAD− staining using flow cytometry, as described above.

The subject of assay [4] is mouse cortical primary neurons. Put plainly: MG132-induced neuronal apoptosis (annexin V/7-AAD flow cytometry). The note with it: MG132 24 hours; inhibitor 0.01 μM. Format: cell-based. How it is done: Primary cultures of C57BL/6 mice cortical neurons were prepared from fetal animals of 14.5 days of gestation, seeded at 1.8·10^5 cells/cm^2 in plastic plates coated with poly-D-lysine (10 mg/ml) and incubated in Neurobasal (Life Technologies) supplemented with 2 mM glutamine, 5 mM of glucose, 0.25 mM pyruvate and 2% B27 supplement (Life Technologies). Cells were incubated at 37° C. in a humidified 5% CO2-containing atmosphere. At 72 hours after plating, medium was replaced using Neurobasal (Life Technologies) supplemented with 2 mM glutamine, 5 mM glucose, 0.25 mM pyruvate and 2% B27 supplement (Life Technologies) minus antioxidants (MAO; i.e., lacking vitamin E, vitamin E acetate, superoxide dismutase, catalase and glutathione). […] APC/C-conjugated annexin-V and 7-amino-actinomycin D (7-AAD) (Becton Dickinson Biosciences, BDB, San Jose, Calif., USA) were used to determine quantitatively the percentage of apoptotic neurons by flow cytometry. Cells were stained with annexin V-APC and 7-AAD, following the manufacturer's instructions, and were analysed on a FACScalibur™ flow cytometer (15 mW argon ion laser tuned at 488 nm; CellQuest software, Becton Dickinson Biosciences) using the CellQuest software (BDB). Both GFP+ and GFP− cells were analyzed separately, and the annexin V-APC-stained cells that were 7-AAD-negative were considered to be apoptotic.
(In general: In flow cytometry, cells or beads pass a laser one at a time.)

Assay [5] relates to mouse primary cortical neurons. Put plainly: Lactate release (glycolysis) upon excitotoxic stimuli. The note with it: NMDA or glutamate 100 μM 10 minutes, then inhibitor 0.01 μM 24 hours. Format: cell-based. How it is done: as §1, with “Cells were resuspended in 500 μl of NADP/NADPH extraction buffer, vortexed and centrifuged at 14,000 rpm for 5 minutes to remove insoluble material. The supernatant was used for NADPH +plus NADP+ measurement.” left out
In view that this treatment causes PFKFB3 stabilization leading to glycolytic activation and PPP inhibition (Rodriguez-Rodriguez et al., 2012), we reasoned that PFKFB3 inhibition by AZ67 and Compound 1 could abrogate these effects. […] To directly test whether this effect is associated with the control of PFKFB3 on glycolysis, we next assessed the glycolytic-end product, lactate, released to the incubation medium.

The next assay deals with primary neurons. Put plainly: Mitochondrial ROS in NMDA and glutamate excitotoxic models. Format: cell-based. The note with it: 0.01 μM, triggered by NMDA and glutamate, FIG. 4B.
[6] abbreviates: Cln7Aex2 mice in vivo, FIGS. 15A-15C.

Turning to `Cc1noc(C)c1Cn1cc(C#N)c2cc(Oc3ccc(NC(=O)[C@@H]4CCCN4)cc3)ccc21` [AZ67, (2S)-N-[4-({3-cyano-1-[(3,5-dimethyl-1,2-oxazol-4-yl)methyl]-1H-indol-5-yl}oxy)phenyl]pyrrolidine-2-carboxamide], in assay [1], the “improvement in rota-rod test performance (latency to fall)” value is listed as ~50%. In addition, in assay [2] (FIG. 5), the “apoptotic neuronal death increased by glutamate and NMDA” value is given as “significantly prevented”. Besides, the “neuroprotection under PFK1-M overexpression” value in assay [2] (PFK1-M overexpression, FIGS. 6B and 6C) is listed as “abolish the neuroprotection”. The “protection of mouse primary cortical neurons from apoptosis” value in assay [2] (apoptosis induced by NMDA and glutamate, FIG. 6A) was “protect”. In the assay with Cln7Aex2 mice (setting [6]), the “accumulation of SCMAS in the cortex” value is recorded as “prevented the accumulation”, the “accumulation of lipofuscin in the cortex” value is “prevented the accumulation” and the “accumulation of reactive astroglia in the cortex” value is listed as “prevented the accumulation”. Also, the hindlimb paralysis result in the assay with Cln7Aex2 mice (Cln7Aex2 mice, FIG. 15D) is “prevented”. Besides, in assay [3] (NMDA and glutamate), the protection from apoptosis result was “protect mouse primary cortical neurons from apoptosis”. In addition, the “prevention of apoptotic neuronal death” value in assay [3] (NMDA) was found to be 90%. Further, the “prevention of apoptotic neuronal death” value in assay [3] (glutamate) amounted to 76%. For the same compound, the “prevention of neuronal apoptosis caused by MG132” value in assay [4] was ~45%. The “lactate released (activation of glycolysis)” value in assay [5] is “fully prevented; also recorded: prevent the increase in lactate production”. In addition, in the assay with primary neurons, the “increase in mitochondrial ROS” value is “significantly prevented”.
